Data from patent publication US20150322033A1, “ANTIBACTERIAL AGENT” (priority 2012, published 2015).
Converted amounts (≈) assume the structure as drawn. Read-outs that look alike come from different tables or passages of the source.

Assays:
[1] = tested on: S. aureus FDA209P (ATCC 6538P); assay: microbe, parasite or virus in culture; type: cell-based, Staphylococcus aureus; settings: for MIC: Staphylococcus aureus, read-out: MIC (mg/L) FDA209P
Method: (§1) S. aureus Mu50 (refer to Hiramatsu, K., Hanaki H., et al., J. Antimicrob. Chemother., 1997, 40(1), 135-6) or S. aureus FDA209P (ATCC 6538P) was cultured overnight at 37° C. in 4 mL of TBS (Tryptical Soy Broth, produced by Becton Dickinson) with shaking. After completion of the culture, the cells were suspended in fresh TBS to prepare a cell suspension showing an absorbance of 0.3 at 578 nm. Then, the cell suspension was diluted 500 times with CAMHB mentioned above.
(§2) CAMHB containing each test compound at each of the aforementioned concentrations was added to each well of a 96-well plate in a volume of 50 μL/well, the aforementioned cell suspension diluted 500 time was added to the well in a volume of 50 μL/well, and stationary culture was carried out overnight at 37° C.
(§3) MIC values (mg/L) of the flavones and quinolones against the strains were measured in the same manner as that of the measurement of MIC of Example 1, except that CAMHB containing each of the aforementioned flavones and quinolones prepared in Example 2 was used instead of CAMHB containing each of the test compounds.
(§4) MIC values of the flavones and quinolone for the strains were measured in the same manners as those of Example 1, except that S. aureus Mu50 NR-1 was also used as Staphylococcus aureus in addition to S. aureus FDA209P and S. aureus Mu50, cell suspensions of the strains were prepared.
(§5) In the same manner as that of Example 1, MIC values of M-246, M-21, J-Q21, and J-Q12.1 for Staphylococcus aureus were measured. M-246 and M-21 were obtained as commercial products, and as J-Q21 and J-Q12.1, those synthesized in Examples 6 and 7 were used.

[2] = tested on: S. aureus Mu50; assay: microbe, parasite or virus in culture; type: cell-based, Staphylococcus aureus; settings: for MIC: Staphylococcus aureus, MU50, read-out: MIC (mg/L) Mu50, Example 1, Tables 1 to 10; for MIC (mg/L) Mu50: Example 1, Tables 1 to 10;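 as to MIC ratio: ratio is FDA209P MIC divided by Mu50 MIC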
Method: as §1, §2, §3, §4, §5

Structure (SMILES)	MIC ([1]; Example 1, Tables 1 to 10)	MIC [2]	MIC (mg/L) FDA209P ([1]; Example 1, Tables 1 to 10)	MIC (mg/L) Mu50 [2]	other results
CCOC(=O)c1oc2cc(OC)cc(O)c2c(=O)c1-c1ccc(OC)cc1 [compound 91]	> 128 mg/L	> 128 mg/L	–	–	–
O=c1cc(-c2ccccc2)oc2ccccc12.O=c1cc(-c2ccccc2)oc2ccccc12 [Compound 25]	–	–	–	–	MIC (mg/L) S. aureus FDA209P ([1]; Example 2, Table 12): 128 mg/L; MIC ratio ([2]; (MIC value for S. aureus FDA209P)/(MIC value for S. aureus Mu50)): 2; MIC (mg/L) S. aureus Mu50 ([2]; Example 2, Table 12): 64 mg/L
O=C1CC(c2ccc(O)cc2)Oc2ccccc21 (centres unmarked) [compound 123, 4′-Hydroxyflavanone]	128 mg/L (≈ 533 µM)	128 mg/L (≈ 533 µM)	–	–	–
COc1ccc(-c2cc(=O)c3c(OC)c(OC)c(OC)cc3o2)cc1OC [compound 42]	> 128 mg/L	> 128 mg/L	–	–	–
CC(=O)Oc1cc(OC(C)=O)c2c(=O)c(-c3ccc4c(c3)OCCO4)c(C)oc2c1 [compound 77]	–	–	>128 mg/L	>128 mg/L	–
COc1ccc(-c2coc3cc(O)c(OC)c(O)c3c2=O)cc1 [compound 94]	128 mg/L (≈ 407 µM)	128 mg/L (≈ 407 µM)	–	–	–
Cc1c(O)cc(O)c2c(=O)cc(-c3ccccc3)oc12 [compound 8]	–	–	>128 mg/L	–	–
COc1cc(O)c2c(=O)c(-c3cc4c(cc3C)OCCO4)c(C)oc2c1 [compound 86]	–	–	>128 mg/L	–	–
COc1cc(OC)c2c(=O)c(-c3cc4c(cc3C)OCCO4)c(C)oc2c1 [compound 88]	–	–	128 mg/L (≈ 347 µM)	>128 mg/L	–
O=C1CC(c2ccccc2)Oc2ccccc21 (centres unmarked) [compound 126]	128 mg/L (≈ 571 µM)	128 mg/L (≈ 571 µM)	–	–	–
COc1ccc(-c2coc3cc(O)cc(O)c3c2=O)cc1OC [compound 117]	> 128 mg/L	> 128 mg/L	–	–	–
COc1ccc(-c2c(C)oc3cc(OC(C)=O)cc(OC(C)=O)c3c2=O)cc1 [compound 119]	> 128 mg/L	> 128 mg/L	–	–	–
COc1ccc(-c2coc3cc(OC4OC(CO)C(O)C(O)C4O)cc(O)c3c2=O)cc1 (centres unmarked) [compound 110]	–	–	128 mg/L (≈ 287 µM)	128 mg/L (≈ 287 µM)	–
CCc1oc2cc(O)cc(O)c2c(=O)c1-c1ccc(OC)cc1 [compound 90]	128 mg/L (≈ 410 µM)	–	–	–	–
O=c1c(-c2ccc(O)cc2O)coc2cc(O)cc(O)c12 [compound 101]	128 mg/L (≈ 447 µM)	128 mg/L (≈ 447 µM)	–	–	–
COc1c(O)cc2oc(-c3ccc(O)cc3)cc(=O)c2c1O [compound 26]	–	–	–	–	MIC [1]: > 128 mg/L
COc1cc(-c2[o+]c3cc(O)cc(O)c3cc2O)cc(O)c1O [compound 131]	–	–	128 mg/L	128 mg/L	–
O=c1cc(-c2ccccc2)oc2ccc(O)cc12 [compound 13]	–	–	>128 mg/L	>128 mg/L	–
O.Oc1cc(O)c2c(c1)OC(c1ccc(O)c(O)c1)C(O)C2 (centres unmarked) [compound 133, 3,3′,4′,5,7-Flavanpentol Hydrate]	–	–	128 mg/L	–	MIC (mg/L) Mu50 ([2]; Hydrate): >128 mg/L
COc1cc(O)c(CN2CCCC(C)C2)c2oc(-c3ccccc3)cc(=O)c12 (centres unmarked) [compound 53]	–	–	128 mg/L (≈ 337 µM)	–	–
O=c1cc(-c2ccccc2)oc2cccc(O)c12 [compound 17]	–	–	128 mg/L (≈ 537 µM)	128 mg/L (≈ 537 µM)	–
CC(=O)C1C(=O)c2ccccc2N(c2ccccc2)C1=O (centres unmarked) [compound 56]	> 128 mg/L	> 128 mg/L	–	–	–
Cc1oc2cc(O)cc(O)c2c(=O)c1-c1ccc2c(c1)OCCCO2 [compound 83]	128 mg/L (≈ 376 µM)	128 mg/L (≈ 376 µM)	–	–	–
COc1cc(-c2[o+]c3cc(O)cc(O)c3cc2O)cc(OC)c1O [compound 130]	–	–	128 mg/L	128 mg/L	–
O=c1c(-c2ccc3c(c2)OCCO3)coc2cc(O)cc(O)c12 [compound 106]	–	–	64 mg/L (≈ 205 µM)	64 mg/L (≈ 205 µM)	–
COc1cc(O)c(CN2CCCCC2)c2oc(-c3ccccc3)cc(=O)c12 [compound 48]	–	–	128 mg/L (≈ 350 µM)	>128 mg/L	–
O=C1CC(c2ccc(O)cc2)Oc2cc(O)cc(O)c21 (centres unmarked) [compound 128, 4′,5,7-Trihydroxyflavanone]	128 mg/L (≈ 470 µM)	128 mg/L (≈ 470 µM)	–	–	–
CC(=O)Oc1cc(OC(C)=O)c2c(=O)c(-c3cc4c(cc3C)OCCO4)c(C)oc2c1 [compound 89]	–	–	128 mg/L (≈ 302 µM)	128 mg/L (≈ 302 µM)	–
COc1ccc(-c2cc(=O)c3c(OC)c(OC)c(OC)c(OC)c3o2)cc1OC [compound 10]	–	–	128 mg/L (≈ 318 µM)	–	–
